Results from patent US20180296507A1, “REDOX-ACTIVATED GLYCOCONJUGATED PROCHELATORS” (ARIZONA BOARD OF REGENTS ON BEHALF OF THE UNIVERSITY OF …, priority 2013, published 2018).
Values joined by “and” are separate entries in the source; they are usually repeats but may differ in a detail not shown here. Equal values may be shown once. “Also recorded” adds a separate entry of the source.

Key:
intracellular iron [1] = assay: Calcein-based iron displacement assay in suspended Jurkat cells; type: cell-based
From the text: In some embodiments, intracellular activation and iron chelation may be investigated using a calcein-based iron displacement assay. This assay may confirm the activation of the prochelators for iron scavenging, and may also indicate the timeframe for cellular entry and iron binding. […] Data such as this may be collected for particular glycoconjugates to assess the duration of uptake and in particular to determine differences among systems carrying different connectivity (e.g., linker, position of glucose substitution) between the sugar and the prochelator units.

intracellular iron [2] = assay: EPR experiments in whole leukemia cells; type: cell-based
From the text: Chelators (e.g., TC1SH, TC2SH, TC3SH) are released upon reduction of the disulfide bond. The reduced species (e.g., TC1SH, TC2SH, TC3SH) are tridentate iron chelators forming complexes of 2:1 ligand-to-metal stoichiometry. Magnetic measurements and X-ray crystallographic data on the resulting iron complexes (see FIG. 4, BF4^− counterion not shown) indicate that these chelators stabilize iron centers as low-spin Fe(III) species. […] The present invention is not limited to chelators that stabilize iron centers as low-spin Fe(III) species.

[3] = Aqueous solubility by UV-Vis absorption spectroscopy of saturated buffer solutions; type: physicochemical; settings: 5.0 mM TRIS buffer, pH 7.40; average ± SD of triplicate
Description: Solubility measurements. The effect of the sugar motif on the aqueous solubility of the synthesized prochelators was investigated by UV-Visible absorption spectroscopy. Determination of molar extinction coefficients of each compound in aqueous buffer (5.0 mM TRIS, pH 7.40) allowed measurement of their concentration at saturation. Stock solutions were prepared in DMSO and diluted in TRIS buffer (5.0 mM, pH 7.40). Buffer solutions containing identical amounts of DMSO (0.3% v/v) were used to obtain blank spectra. […] For solubility measurements, saturated solutions were centrifuged for 20 minutes at 3,200 rpm to remove any precipitate and concentrations were determined by UV-Vis spectroscopy. […] Measurements were done in a set of triplicates.

Caco-2 cells = assay: MTT cytotoxicity assay in Caco-2 cells; type: cell-based, human; settings: for IC50: 72 h exposure, average ± SD of triplicate
Description: (§1) Cell culture. Caco-2 (ATCC® HTB-37™) colorectal adenocarcinoma and CCD-18Co (ATCC® CRL-1459™) normal colon fibroblasts were cultured under a 5% CO2 humidified atmosphere at 37° C. in Eagle's Minimal Essential Medium (EMEM) supplemented with 10% fetal bovine serum (FBS), glutamine (2 mM), sodium pyruvate (1 mM), sodium bicarbonate (1.5 g/L), penicillin (100 units/mL), streptomycin (100 μg/mL) and human holo-transferrin (1.25 μM (1 mg/10 mL) prior to use. Flow cytometric analysis was performed at the University of Arizona Cytometry Core Facility (Arizona Cancer Center/Arizona Research Laboratories) using a FACSCanto II flow cytometer (BD Biosciences, San Jose, Calif.) equipped with an air-cooled 15-mW argon ion laser tuned to 488 nm. List mode data files consisting of 10,000 events gated on FSC (forward scatter) vs SSC (side scatter) were acquired and analyzed using CellQuest PRO software (BD Biosciences, San Jose, Calif.). Appropriate electronic compensation was adjusted by acquiring cell populations stained with each dye/fluorophore individually, as well as an unstained control.
(§2) Cytotoxicity assays. The cytotoxicity of the prochelators were assessed using MTT (3-(4,5-dimethylthiazol-2-yl)-2,5-diphenyl-tetrazolium bromide) assays after 72-hour incubations (Table 2). In all cases, the prochelator conjugates are more toxic (lower IC50 values) in the malignant Caco-2 cells than in the normal CCD18-co cells.
(§3) MTT (3-(4,5-dimethylthiazol-2-yl)-2,5-diphenyltetrazolium bromide) viability assays were conducted by standard methods with slight modifications. Cells were seeded at 4000 cells per well for Caco-2 and 10,000 cells per well for CCD18-co and allowed to attach for 24 h. Test compounds dissolved in DMSO were diluted in EMEM to the specified concentration (with final DMSO concentration limited to 0.1%). Cells were incubated in the presence of the test compounds for 72 h, then the MTT solution (4 mg/mL, 10 μL) was added to each well and incubated for 4 h. Following media removal, DMSO (100 μL) was added to each well to dissolve the purple formazan crystals and the plates were incubated for an additional 30 minutes. Absorption at 560 nm was recorded and data were analyzed using logarithmic fits to obtain IC50 values. Each experiment was conducted in triplicate, and values are given as averages plus/minus standard deviation.

CCD18-co cells = assay: MTT cytotoxicity assay in CCD18-co cells; type: cell-based, human; settings: 72 h exposure, average ± SD of triplicate
Description: as §1, §2, §3

glucose transporters [4] = assay: Competition assay with 2-NBDG in MDA-MB-231 cells (flow cytometry); type: cell-based; settings: compound 25-100 μM, 30 min, 2-NBDG 200 μM
From the text: (§4) The competition assays used fluorescently labeled glucose bioprobe 2-(N-(7-nitrobenz-2-oxa-1,3-diazol-4-yl)amino)-2-deoxyglucose (2-NBDG). […] Without wishing to limit the present invention to any theory or mechanism, it is believed that the glycoconjugation may offer an advantageous increase in cancer cell specificity due to the conjugate being a substrate for the GLUT1 transporter protein and thus taking advantage of its overexpression in cancer cells as compared to normal cells.

glucose transporters [5] = assay: Competition assay of transporter-mediated uptake with 2-NBDG in Caco-2 cells (flow cytometry); type: cell-based, human; settings: compound 50 μM; for Competition with 2-NBDG (decrease in intracellular fluorescence): CACO-2 cells, 30 min, 2-NBDG 200 μM; for Competition with 2-NBDG for transporter-mediated uptake: Caco-2 cells, 2-NBDG 100 μM, 40 min
Description: Co-treatment with glucose (10 mM) and glucose transporter (GLUT1) inhibitor phloretin (100 μM, 30 min) are employed as positive controls. Experiments were conducted in triplicate and values shown are averages±standard deviation. Statistical analysis: ** p<0.01, *** p<0.001 as compared to the control.
as §4
Competition assay of transporter-mediated uptake. Caco-2 cells were plated at 1×10^6 cells per well in 6-well plates and allowed to adhere for 36 hours. Growth media were then removed and cells were incubated for 12 hours in glucose-free EMEM. […] As a positive control, after starvation cells were treated with 100 μM phloretin for 30 minutes, then treated with EMEM containing 100 μM 2-NBDG for 40 minutes. Cells were washed with PBS (1 mL) and detached by addition of Trypsin-EDTA (400 μL) and incubation for 3 minutes at 37° C. Following addition of EMEM (1 mL), the cell suspensions were centrifuged at 125 g for 10 minutes. The resulting pellets were suspended in PBS (0.5 mL) and transferred to a flow cytometry tube. Cells were stored on ice and analyzed by flow cytometry within 1 hour. Data are obtained as the average of three sets of geometric means of the flow cytometry histogram, and plotted as the percent difference from the control plus/minus the standard deviation between three values.

| Structure (SMILES) | IC50 (Caco-2 cells; MTT) | IC50 (CCD18-co cells) | Competition with 2-NBDG for transporter-mediated uptake (glucose transporters [5]) | also measured |
| --- | --- | --- | --- | --- |
| S=C(N/N=C/c1ccccc1SSc1ccccc1/C=N/NC(=S)Nc1ccccc1)Nc1ccccc1 [(TC1S)2] | – | – | – | Timeframe of passive diffusion, activation and iron coordination (intracellular iron [1]): within minutes; Intracellular reduction/activation and formation of low-spin Fe(III) complex (intracellular iron [2]): direct evidence for both the reduction/activation |
| COc1ccc(NC(=S)NN=Cc2ccccc2SSc2ccccc2C=NNC(=S)Nc2ccc(OC)cc2)cc1 [(TC4-S)2] | – | – | – | Concentration at saturation [3]: <5 μM and <3 mg/L |
| COC(=O)CCSSc1ccccc1C=NNC(=S)Nc1ccc(OC)cc1 [ATC4] | 8.1 ± 0.2 µM | 27.5 ± 0.4 µM | – | Concentration at saturation [3]: 11 ± 1 μM and 4.7 ± 0.5 mg/L; Times more toxic in Caco-2 cells than in CCD18-co cells (Caco-2 cells; MTT, 72 h): 3 times; Therapeutic Index (Caco-2 cells; ratio of IC50 in normal CCD18-co cells relative to malignant Caco-2 cells): 3.4 ± 0.1 |
| O=C(CCSSc1ccccc1C=NNC(=S)Nc1ccccc1)NC1C(O)OC(CO)C(O)C1O (stereo not shown) [Compound G2TC1] | – | – | – | Uptake of 2-NBDG in the presence of compound (glucose transporters [4]): decreased uptake of the fluorescent glycoconjugate |
| O=C(CCSSc1ccccc1C=NNC(=S)Nc1ccccc1)OCC1OC(O)C(O)C(O)C1O (stereo not shown) [Compound G6TC1] | – | – | – | Competition with 2-NBDG (decrease in intracellular fluorescence) (glucose transporters [5]): better competitors of 2-NBDG; also recorded: over three times the decrease due to G2TC1 |
| COc1ccc(NC(=S)NN=Cc2ccccc2SSCCC(=O)OCC2OC(O)C(O)C(O)C2O)cc1 (stereo not shown) [Compound G6TC4] | 6.9 ± 0.4 µM | 76 ± 2 µM | competes strongly with 2-NBDG for uptake; also recorded: competes aggressively with fluorescent glycoconjugate 2-NBDG | – |
| O=C(CCSSc1ccccc1C=NNC(=S)Nc1ccccc1)OCC1OC(O)C(O)C(O)C1O (stereo not shown) [Compound M6TC1] | – | – | – | Competition with 2-NBDG (decrease in intracellular fluorescence) (glucose transporters [5]): better competitors of 2-NBDG |
| COc1ccc(NC(=S)NN=Cc2ccccc2SSCCC(=O)OCC2OC(O)C(O)C(O)C2O)cc1 (stereo not shown) [Compound M6TC4] | 10.1 ± 0.3 µM | 62.2 ± 0.1 µM | competed successfully with 2-NBDG | – |
| COc1ccc(NC(=S)NN=Cc2ccccc2SSCCC(=O)NC2C(O)OC(CO)C(O)C2O)cc1 (stereo not shown) [GA2TC4] | – | 22.5 ± 0.8 µM | did not compete for uptake with 2-NBDG | – |
